{
  "source": "patent US8822535B2",
  "about": "(priority 2005, dated 2014)",
  "key": {"[1]": {"system": "zebrafish (D. rerio) embryos", "experiment": "Zebrafish embryo heart rate screening assay", "assay_type": "in vivo", "from_the_text": "These embryos are transparent, allowing one to view, using a dissecting microscope with a 4-20 times power lense, the heart beat and resultant blood flow into the main vessel along the back and into the tail. Heart rate in these animals is an indicator of the metabolic activity of the organism, such that a reduction in the heart rate signifies a reduction in metabolism. Embryos were dissected from their egg casings and distributed five per well in flat bottomed polystyrene tissue culture plates and incubated in 1 mL of standard fish water. The fishwater is composed of 1 teaspoon Instant Ocean (artificial sea water mixture, Aquarium Systems, Inc.) per 5 gallons. Calcium chloride is adjusted to 150 ppm and sodium bicarbonate to ˜100 ppm."}, "mice [2]": {"system": "mice", "description": "Female C57BL/6J mice (Jackson Laboratories—Bar Harbor, Me.) were implanted with telemetry devices (PDT-4000 HR E-Mitter—MiniMitter Inc.—Bend, Oreg.) according to standard protocol provided by the manufacturer. Mice were allowed to recover for several weeks to permit body temperature and heart rate signals to stabilize. Core body temperature, heart rate, and movement of the mice were continuously monitored via the telemetry devices and recorded using VitalView software (provided by MiniMitter). Ambient temperature was monitored using a HOBO (Onset Computer Corp. —Pocasset, Mass.) and the data analyzed using BoxCar software (provided by Onset Computer Corp.).\nPrior to and during exposure to testing in regulated and unregulated atmospheres, the mice were placed in a gassing chamber comprising a glass cage (with drinking water and no food) fitted with import and export tubes of FEP tubing from Cole-Parmer (Vernon Hills, Ill.) for introduction and venting of the atmosphere. The cage was sealed with a lid using Dow Corning silicone vacuum grease (Sigma—St. Louis, Mo.). The gas from each cage was vented through the export tube into the chemical hood. To ensure that the system was gas-tight, a GasTech GT portable monitor was used to detect leaks.\nIn some experiments, the consumption of oxygen was measured by use of a PA-10a O2 analyzer (Sable Systems) which was used according to manufacturers instructions. Similarly, the carbon dioxide being produced by the animals was monitored using a LI-7000 CO2/H2O analyzer (Li-Cor company) used according to the manufacturers instructions. These instruments were placed in line with the environmental chambers such that they sample the gas import and export tubing.\nMice were housed in a Shel Lab low temperature diurnal illumination incubator (Sheldon Manufacturing Inc. —Cornelius, Oreg.) to regulate both temperature and light cycle (8 AM lights on, 8 PM lights off) for the mice. Mice were exposed to regulated atmosphere as described above. When the mice were exposed to the regulated atmosphere, the temperature inside the incubator was dropped to the desired temperature, for example, to 10° C. or 15° C. The mice were maintained in the regulated atmosphere and at the lowered temperature for six hours. The atmosphere in the gassing chamber was replaced with room air and the mice were returned to normal room temperature (22° C.) and allowed to recover.\nTo test this hypothesis, the inventor wanted to continuously monitor both the core body temperature and the activity levels of a homeothermic animal (a mouse)."}, "mice [3]": {"system": "mice", "assay_type": "in vivo, mouse (C57BL6/J)", "experimental": "The same flow rates were used as described above (i.e., […] in a 0.5 L chamber).\nExperiments were conducted to test the ability of a mouse in a ‘hibernation-like’ state to survive in conditions where it would normally die. The adverse condition was hypoxia, which the literature states that mice (C57BL6/J males) can live in for a maximum of 20 minutes at 5% Oxygen.\nThe hypoxic exposure was timed (indicated below) and viability of the mice was determined."}, "rats": {"system": "rats", "experiment": "Gas matrix: metabolic flexibility in altered gas environments, rats", "assay_type": "in vivo, rat", "conditions": "0.03% in room air, ambient 7 to 10° C., 6-hour treatment", "experimental": "Metabolic flexibility was evaluated in mice rats and dogs using altered gas environments. Three parameters were used to define this reduction in metabolism including changes in carbon dioxide production, oxygen consumption measured by respirometry, and core temperature as measured using telemetry. In experiments with mice and rats the animals were placed into sealed chambers with one gas import and one gas export. For dogs a mask was placed over the snout of the animal with two hoses (import and export) attached to the mask. The flow rate of gas for each of the animals mice—500 cc per minute, rats—2 liters per minute, and dogs 40 liters per minute. Each atmosphere was constructed from compressed gas by dilution into room air unless otherwise noted. For rat and mouse experiments the ambient temperature was 7 to 10° C. during exposure to the test gases. For dogs ambient temperature was room temperature (22° C.).\nEvidence of depression in metabolic rate of greater than 5-fold as judged by carbon dioxide production or oxygen consumption during a 6-hour treatment is described by “Yes”; […]; “N/D” denotes experiments not done. The temperature drop in the dog experiment (Carbon dioxide+low oxygen+Helium) was approximately 1.5° C. over the course of 30 minutes of exposure. This drop in temperature was considered significant because the dog was 12 kg and no such temperature drop was seen during extensive baseline recording of the animal in room air."}, "mice [4]": {"system": "mice", "experiment": "Cyanide exposure experiment in mice", "assay_type": "in vivo, mouse", "conditions": "80 ppm in room air at room temperature", "experimental": "To measure metabolic effects of HCN, mice were exposed to increasing concentrations of HCN starting at 1 ppm. Oxygen (O2) consumption, carbon dioxide (CO2) production, body core temperature (BCT) and behavior were measured or evaluated. […]. A metabolic effect is defined as a 10% change in less than 10 minutes in any of the assay values described above."}, "[5]": {"conditions": "80 ppm H2S, 15 minutes, 0.5 L chamber"}},
  "note": "Read-outs that look alike come from different tables or passages of the source.",
  "data": [
    {"smiles": "S", "note": "[H2S, hydrogen sulfide]", "values": [
      {"measurement": "heart rate after recovery", "setting": "[1]; 24 hours after initial exposure, solution replaced with normal fishwater after five hours", "value": "160-200 beats per minute"},
      {"measurement": "heart beats", "setting": "[1]; 48 hour old embryos, hydrogen sulfide-containing fishwater (approximately 0.1 molar), 2-3 hours following exposure", "value": "60-80 beats per minute"},
      {"measurement": "core body temperature reached repeatedly", "setting": "mice [2]; 80 ppm", "value": "13-15 °C"},
      {"measurement": "reduction in carbon dioxide production", "setting": "mice [2]; 80 ppm H2S (FIG. 4A)", "value": "approximately 3 fold"},
      {"measurement": "drop in carbon dioxide production", "setting": "mice [2]; [5]", "value": "3-4 fold"},
      {"measurement": "drop in oxygen consumption", "setting": "mice [2]; [5]", "value": "2-3 fold"},
      {"measurement": "heart rate", "setting": "mice [2]; 80 ppm, 3 hrs, dropped from 600 bpm", "value": 250, "unit": "bpm"},
      {"measurement": "lowest core body temperature recorded", "setting": "mice [2]; 80 ppm, ambient temperature dropped to less than 10° C. (FIG. 7)", "value": 10.7, "unit": "°C"},
      {"measurement": "core temperature", "setting": "mice [2]; 80 ppm, cabinet 10° C., telemetry mouse, estimation from slope after electronics failed at 15.3° C.", "value": "approximately 12.5 °C"},
      {"measurement": "core body temperature", "setting": "mice [2]; 80 ppm, cabinet 10.5° C., approximately six hours", "value": 10.5, "unit": "°C"},
      {"measurement": "decrease in cellular respiration", "setting": "mice [2]; 80 ppm, core temperature 15° C.", "value": "1-20 fold"},
      {"measurement": "breathing", "setting": "mice [2]; 80 ppm, core temperature dropped to 15° C.", "value": "1-10 breaths per minute"},
      {"measurement": "core temperature", "setting": "mice [2]; 80 ppm, incubator 18° C., 90 min", "value": 28.6, "unit": "°C"},
      {"measurement": "core temperature", "setting": "mice [2]; 80 ppm, incubator 18° C., 3 hrs", "value": 18.6, "unit": "°C"},
      {"measurement": "Consumption of oxygen", "setting": "mice [2]; H2S (80 ppm) present", "value": 1300, "unit": "ppm"},
      {"measurement": "production of carbon dioxide", "setting": "mice [2]; H2S (80 ppm) present", "value": 750, "unit": "ppm"},
      {"measurement": "RQ", "setting": "mice [2]; mouse, in vivo", "value": 0.58},
      {"measurement": "behavior of the animals", "setting": "mice [2]; mouse, in vivo", "value": "no apparent change in the behavior"},
      {"measurement": "behavior tests (SHIRPA protocol)", "setting": "mice [2]; mouse, in vivo", "value": "no detectable behavioral differences"},
      {"measurement": "lowest average core body temperature", "setting": "mice [2]; seven mice, 80 ppm, 6 hrs, ambient temperature 13° C.", "value": 15, "unit": "°C"},
      {"measurement": "Time in Hypoxia", "setting": "mice [3]; ambient 20° C., 5 hrs in 80 ppm H2S prior, 4% oxygen, result life", "value": 28, "unit": "min"},
      {"measurement": "Time in Hypoxia", "setting": "mice [3]; ambient 20° C., 5 hrs in 80 ppm H2S prior, 5.00% oxygen, result life", "value": 60, "unit": "min"},
      {"measurement": "Time in Hypoxia", "setting": "mice [3]; ambient 20° C., 5 hrs in 80 ppm H2S prior, 5.20% oxygen, result life", "value": 11, "unit": "min"},
      {"measurement": "Time in Hypoxia", "setting": "mice [3]; ambient 20° C., 5.5 hrs in 80 ppm H2S prior, 5.00% oxygen, result life", "value": 25, "unit": "min"},
      {"measurement": "Time in Hypoxia", "setting": "mice [3]; ambient 24° C., 80 ppm H2S simultaneous with hypoxia, 5.10% oxygen, result dead", "value": 10, "unit": "min"},
      {"measurement": "Time in Hypoxia", "setting": "mice [3]; ambient 24° C., 8 minutes in 80 ppm H2S prior, 4.00% oxygen, result dead", "value": 8, "unit": "min"},
      {"measurement": "Time in Hypoxia", "setting": "mice [3]; ambient 24° C., 8 minutes in 80 ppm H2S prior, 4.50% oxygen, result dead", "value": 23, "unit": "min"},
      {"measurement": "Time in Hypoxia", "setting": "mice [3]; ambient 24° C., 8 minutes in 80 ppm H2S prior, 5% oxygen, result dead", "value": 20, "unit": "min"},
      {"measurement": "Time in Hypoxia", "setting": "mice [3]; ambient 24° C., 8 minutes in 80 ppm H2S prior, 5.00% oxygen, result life", "value": 50, "unit": "min"},
      {"measurement": "Time in Hypoxia", "setting": "mice [3]; ambient 24° C., 10 minutes in 90 ppm H2S prior, 5% oxygen, result dead", "value": 56, "unit": "min"},
      {"measurement": "Time in Hypoxia", "setting": "mice [3]; ambient 30° C., 8 minutes in 80 ppm H2S prior, 4.50% oxygen, result dead", "value": 6, "unit": "min"},
      {"measurement": "time survived in hypoxia", "setting": "mice [3]; pre-equilibrated to 80 ppm H2S for 3 hours, 5.2% oxygen, still doing well 3 weeks later", "value": 11, "unit": "min"},
      {"measurement": "depression in metabolic rate, Rat", "setting": "rats", "value": "Yes 0.03% (Evidence of depression in metabolic rate of greater than 5-fold as judged by carbon dioxide production or oxygen consumption during a 6-hour treatment is described by “Yes”)"},
      {"measurement": "core temperature", "setting": "mice [4]", "value": "approximately 28 °C"}
    ]}
  ]
}
